Measurements: US11484511B2, “Pharmaceutical composition comprising THA as effective ingredient for treatment of prostate cancer” (KOREA UNITED PHARM. INC., priority 2018, dated 2022)
Entries after “also recorded” stand apart in the source; their conditions may differ.

Experiments:
Type in all cases: cell-based
PC3 cells [1] = experiment: Real-time cell proliferation analysis (INCUCYTE ZOOM); conditions: THA 3, 10, 30 μM, BI2536 1-100 nM, PPG 3-100 μM, 68 hours
Method: (§1) LnCaP cells, PC3 cells which are androgen receptor (AR)-negative cells, and C4-2 cells showing castration resistance were cultured using an RPMI-1640 medium (Hyclone, Logan, Utah, USA) containing 10% fetal bovine serum (FBS) (Hyclone, Logan, Utah, USA) and 1% penicillin/streptomycin.
(§2) In order to measure cell proliferation, cells were plated onto a 96-well dish (5×10^3 cells/well). After treatment with a drug, the number of live cells was measured at 4-hour intervals using an INCUCYTE™ ZOOM Live Cell Analysis System (Essen Bioscience, Ann Arbor, Mich., USA).
(§3) In order to comparatively observe the cell proliferation inhibitory effects after treatment of prostate cancer cells with THA, a 1 M solution was prepared by diluting 0.168 g of THA (molecular weight: 168.15) with 1 ml DMSO. After the prostate cancer cell lines (LnCaP, PC3, and C4-2) cultured by the method in Example 1-2 were treated with THA (3, 10, and 30 μM), PLK1 inhibitor BI2536 (1, 5, 10, 50, and 100 nM), and purpurogallin (PPG) (3, 10, 30, and 100 μM), the cell proliferation inhibitory effects were comparatively observed by the real-time cell proliferation analysis method for 68 hours according to Example 1-4 during.

C4-2 cells [2] = experiment: as above; conditions: THA 3, 10, 30 μM, BI2536 1-100 nM, PPG 3-100 μM, 68 hours
Method: as §1, §2, §3

PC3 cells [3] = experiment: Cleaved caspase-3 (CC3) expression by immunochemical analysis; conditions: for induction of apoptosis: 30 μM THA or 5 nM BI2536, 48 hours
Method: (§4) Sodium dodecyl sulfate-polyacrylamide gel electrophoresis (SDS-PAGE) was performed using a gel electrophoresis apparatus (Mighty Small SE250, Hoefer Scientific Instruments, San Francisco). After a cell lysate fraction was diluted in a sample dilution buffer solution [63 mM Tris (pH 6.8), 10% glycerol, 2% SDS, 0.0013% bromophenol blue, and 5% β-mercaptoethanol], electrophoresis was performed in an electrode buffer solution (15 g of Tris, 72 g of glycerin, and 5 g of SDS were contained in a 1 L solution) using 8 to 12% gel. Proteins were electrophoretically transferred from the gel to a nitrocellulose membrane at 190 mAmps for 70 minutes in a transfer buffer solution (25 mM Tris, 192 mM glycerin, and 20% v/v methanol (pH 8.3)) using a transfer electrophoresis apparatus. After a primary antibody was reacted with the nitrocellulose membrane, a secondary antibody was reacted with horseradish peroxidase-conjugated goat anti-rabbit IgG and horseradish peroxidase-conjugated goat anti-mouse IgG for 6 hours, and color was developed using an ECL chemiluminescence system (Amersham, Gaithersberg, Mass.).
(§5) Further, the degree of apoptosis was observed by confirming the changes in expression of cleaved caspase-3 (CC3) which is an active-type caspase-3 during apoptosis, and first, the C4-2 and PC3 cells cultured by the method in Example 1-2 were plated onto a 6-well plate, and then cultured during 12 hr. And then the cells were treated with 30 μM THA or 5 nM BI2536 for 48 hours. Thereafter, the changes in expression of cleaved caspase-3 (CC3) were observed by the immunochemical analysis method in Example 1-3.

C4-2 cells [4] = experiment: as above; conditions: for induction of apoptosis: 30 μM THA or 5 nM BI2536, 48 hours
Method: as §4, §5

PC3 cells [5] = experiment: Cell cycle analysis (PI / PHH3 flow cytometry); conditions: 30 μM THA, 5 nM BI2536, 24 hours
Method: In order to measure the cell cycle distribution, cells were plated onto a 100 mm dish (5×10^5 cells/well). The cells were fixed with 4° C. PBS, refrigerated in 70% EtOH at 4° C., and cultured for 24 hours. After the 70% EtOH was removed, the PHH3 antibody was treated with a lysing solution composed of 1% bovine serum albumin/0.5% Triton X-100/0.2 mg/ml EDTA to a final concentration of 1:50, and then stained at 37° C. for 15 minutes. Thereafter, the lysing solution was removed, and staining was performed again at 37° C. for 15 minutes using propidium iodide (PI)/Triton X-100/DNAse-free RNAse A. Next, 20,000 cells per experimental group were analyzed using the FACSCALIBUR™ (flow cytometer from BD Biosciences, CA, USA) machine.
PLK1 is a representative G2/M cell cycle regulatory […], and in order to confirm the effect of blocking the cell cycle of prostate cancer cells according to the treatment with THA, the PC3 cells cultured by the method in Example 1-2 were plated onto a 6-well plate, and then 12 hours later, the cells were treated with 30 μM THA and 5 nM BI2536 for 24 hours. Thereafter, changes in the cell distribution of each of the sub-G1, S, and G2/M phases and the proportion of PH3-positive cells (M phase marker) were observed by the method in Example 1-6.

LnCaP cells = experiment: Real-time cell proliferation analysis (INCUCYTE ZOOM); conditions: PPG 3-100 μM, 68 hours
Method: as §1, §2, §3

PC3 cells [6] = experiment: Real-time apoptosis analysis (caspase-3/7 fluorescence substrate); conditions: 30 μM THA, 48 hours
Method: (§6) In order to measure apoptosis, cells were plated onto a 96-well dish (5×10^3 cells/well). The INCUCYTE™ ZOOM 96-well Caspase-3/7 apoptosis assay reagent (Essen Bioscience, Ann Arbor, Mich., USA) was pretreated for 3 hours, a drug was treated, and then the fluorescence expression level was measured at 4-hour intervals using an INCUCYTE™ ZOOM Live Cell Analysis System (Essen Bioscience, Ann Arbor, Mich., USA).

C4-2 cells [7] = experiment: as above; conditions: 30 μM THA, 48 hours
Method: as §6

Compound: CC[C@@H]1C(=O)N(C)c2cnc(Nc3ccc(C(=O)NC4CCN(C)CC4)cc3OC)nc2N1C1CCCC1 [BI2536, reference compound]
- cell proliferation inhibitory effect (PC3 cells [1]): selectively inhibits cell proliferation
- cell proliferation inhibitory effect (C4-2 cells [2]): selectively inhibits cell proliferation
- induction of apoptosis (PC3 cells [3]): apoptosis is effectively induced
- induction of apoptosis (C4-2 cells [4]): apoptosis is effectively induced
- PHH3-positive cells (M phase marker) compared to the control (PC3 cells [5]): a significant increase
- cell cycle progression (PC3 cells [5]): inhibition of G2/M phase progression is induced

Compound: O=c1c(O)cccc2cc(O)c(O)c(O)c12 [Purpurogallin, purpurogallin, reference compound]
- cell proliferation inhibitory activity (LnCaP cells): limited cell proliferation inhibitory activity
- cell proliferation inhibitory effect (PC3 cells [1]): limited cell proliferation inhibitory activity
- cell proliferation inhibitory effect (C4-2 cells [2]): a cell growth inhibitory effect that appeared to be non-selective only at a concentration of 100 uM

Compound: CC(=O)c1c(O)cc(O)cc1O [THA, 2,4,6-trihydroxyacetophenone]
- cell proliferation inhibitory effect (PC3 cells [1]): the same cell proliferation inhibitory effects as BI2536; also recorded: selectively inhibits cell proliferation
- cell proliferation inhibitory effect (C4-2 cells [2]): the same cell proliferation inhibitory effects as BI2536; also recorded: selectively inhibits cell proliferation
- apoptotic index (caspase-3/7 activity) (PC3 cells [6]): significantly increased the apoptotic index
- apoptotic index (caspase-3/7 activity) (C4-2 cells [7]): significantly increased the apoptotic index
- induction of apoptosis (PC3 cells [3]): apoptosis is effectively induced
- expression level of cleaved caspase-3 (PC3 cells [3]; 30 μM THA, 48 hours): increased
- induction of apoptosis (C4-2 cells [4]): apoptosis is effectively induced
- expression level of cleaved caspase-3 (C4-2 cells [4]; 30 μM THA, 48 hours): increased
- PHH3-positive cells (M phase marker) compared to the control (PC3 cells [5]): a significant increase
- cell cycle progression (PC3 cells [5]): selectively blocked cell cycle progression at the G2/M phase
